The experiment has as its target T1, human αVβ6 (Homo sapiens, UniProt P06756+P18564).
T1 construct: purchased R & D systems 3817-AV
The experiment in a line: human αVβ6 HTRF binding assay. The conditions noted are these: recombinant human αVβ6 integrin, FITC-conjugated fibronectin. The procedure: All binding assays used the HTRF (homogeneous time resolved fluorescence) technology from Cisbio International, therefore all assays are described as HTRF binding assays. The assay results for the Examples are listed above together with the characterization data. The HTRF binding assays are established for the following integrins: human αVβ6, human αVβ1, human αVβ3, human αVβ5, and human αVβ8. All assays used the following assay buffer: 20 mM Tris, pH 7.4, 1 mM MgCl2, 1 mM MnCl2, 0.01% Tween 20, and 0.01% BSA. Alternatively, a SPA-based assay was used for evaluation of receptor binding.
The following describes the components and a representative procedure for the human αVβ6 HTRF binding assay: Recombinant human αVβ6 Integrin (R & D systems, 3817-AV) was biotinylated. Biotinylated human αVβ6 Integrin was added to assay vessel at a final concentration of 1.25 nM. FITC-conjugated fibronectin (Cytoskeleton, FNR02) was then added at the final concentration of 5 nM. The mixture was centrifuged at 600 rpm for three minutes using Thermo Fisher Heraeus Multifuge X3 centrifuge and then incubated at room temperature for an hour. Streptavidin Terbium (Cisbio international 610STLB) was then added at the final concentration of 0.625 nM. The resulting mixture was centrifuged at 600 rpm for three minutes using Thermo Fisher Heraeus Multifuge X3 centrifuge and then incubated at room temperature overnight in dark before reading HTRF signals. […]
Background: TR-FRET usually uses a lanthanide donor and a delayed reading to cut background.

This passage reports IC50 results from patent US10745384B2, “Indazole derivatives as αv integrin antagonists” (BRISTOL-MYERS SQUIBB COMPANY, priority 2016, dated 2020).

pIC50: −log10 of the molar value. Where a name gives a salt, the structure may show the parent alone.

In general, pIC50 refers to the negative decadic logarithm of the IC50, by convention in mol/L.

T1 sequence (P06756 31-992 limits assumed): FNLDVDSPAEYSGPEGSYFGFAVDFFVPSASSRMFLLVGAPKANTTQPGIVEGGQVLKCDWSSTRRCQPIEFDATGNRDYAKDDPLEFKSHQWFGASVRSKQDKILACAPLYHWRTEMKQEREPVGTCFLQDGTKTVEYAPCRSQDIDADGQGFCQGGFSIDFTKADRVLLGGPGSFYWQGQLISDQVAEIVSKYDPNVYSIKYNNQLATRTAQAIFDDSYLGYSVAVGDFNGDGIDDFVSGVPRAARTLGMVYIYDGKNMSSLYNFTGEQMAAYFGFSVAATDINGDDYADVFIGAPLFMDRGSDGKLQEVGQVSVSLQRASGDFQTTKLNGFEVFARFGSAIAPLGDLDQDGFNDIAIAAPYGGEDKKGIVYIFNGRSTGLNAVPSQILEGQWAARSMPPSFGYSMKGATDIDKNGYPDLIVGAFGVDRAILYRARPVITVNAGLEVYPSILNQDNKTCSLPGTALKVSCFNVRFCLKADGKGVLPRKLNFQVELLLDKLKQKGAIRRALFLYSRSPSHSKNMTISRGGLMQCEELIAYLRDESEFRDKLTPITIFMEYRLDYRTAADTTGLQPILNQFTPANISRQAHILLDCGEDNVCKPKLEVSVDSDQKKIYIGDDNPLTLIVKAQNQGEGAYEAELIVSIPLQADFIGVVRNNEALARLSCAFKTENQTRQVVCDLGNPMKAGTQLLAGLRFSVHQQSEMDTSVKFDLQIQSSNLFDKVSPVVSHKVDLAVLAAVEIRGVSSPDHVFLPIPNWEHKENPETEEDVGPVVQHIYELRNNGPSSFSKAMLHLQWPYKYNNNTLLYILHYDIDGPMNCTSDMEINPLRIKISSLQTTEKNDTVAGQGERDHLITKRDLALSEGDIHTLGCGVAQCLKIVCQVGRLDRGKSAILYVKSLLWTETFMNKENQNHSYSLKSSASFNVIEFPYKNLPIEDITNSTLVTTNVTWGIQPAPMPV
T1 sequence (P18564 22-707 limits assumed): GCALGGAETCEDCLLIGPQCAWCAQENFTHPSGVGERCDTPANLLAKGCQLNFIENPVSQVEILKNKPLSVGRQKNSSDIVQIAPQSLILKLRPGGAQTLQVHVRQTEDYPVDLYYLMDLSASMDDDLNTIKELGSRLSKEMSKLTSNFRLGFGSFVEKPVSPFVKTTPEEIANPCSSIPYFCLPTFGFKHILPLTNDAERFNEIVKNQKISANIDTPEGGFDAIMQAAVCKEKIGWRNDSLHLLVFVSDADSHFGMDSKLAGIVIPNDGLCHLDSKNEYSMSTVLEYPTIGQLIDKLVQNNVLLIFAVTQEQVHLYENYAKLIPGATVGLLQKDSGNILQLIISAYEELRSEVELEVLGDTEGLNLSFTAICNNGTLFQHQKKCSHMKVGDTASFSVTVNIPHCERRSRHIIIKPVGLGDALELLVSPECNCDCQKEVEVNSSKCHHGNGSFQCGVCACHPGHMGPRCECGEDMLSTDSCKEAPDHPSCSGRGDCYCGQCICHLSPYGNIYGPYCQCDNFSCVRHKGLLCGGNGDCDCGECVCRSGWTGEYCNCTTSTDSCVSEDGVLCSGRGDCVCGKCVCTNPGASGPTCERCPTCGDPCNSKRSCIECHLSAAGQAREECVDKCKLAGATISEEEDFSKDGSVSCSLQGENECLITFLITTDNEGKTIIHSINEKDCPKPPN

Turning to `CN(C)C(=O)c1cccc(C(CC(=O)O)n2ncc3c(OCCc4ccc5c(n4)NCCC5)cccc32)c1` (centres unmarked) [Example 29, 3-(3-(Dimethylcarbamoyl)phenyl)-3-(4-(2-(5,6,7,8-tetrahydro-1,8-naphthyridin-2-yl)ethoxy)-1H-indazol-1-yl)propanoic acid], the pIC50 was 5.82.

With `O=C(O)CC(c1ccc2c(c1)oc1ccccc12)n1ncc2c(OCCc3ccc4c(n3)NCCC4)cccc21` (centres unmarked) [Example 30, 3-(Dibenzo[b,d]furan-3-yl)-3-(4-(2-(5,6,7,8-tetrahydro-1,8-naphthyridin-2-yl)ethoxy)-1H-indazol-1-yl)propanoic acid], the pIC50 is 5.92.

Regarding `O=C(O)CC(CCC(F)(F)F)n1ncc2c(CCCc3ccc4c(n3)NCCC4)cccc21` (centres unmarked) [Example 31, 6,6,6-Trifluoro-3-(4-(3-(5,6,7,8-tetrahydro-1,8-naphthyridin-2-yl)propyl)-1H-indazol-1-yl)hexanoic acid], the pIC50 is 5.48.

Consider `O=C(O)CC(c1cc(Cl)cc(Cl)c1)n1ncc2c(OCCc3ccc4c(n3)NCCC4)cccc21` (centres unmarked) [Example 32, 3-(3,5-Dichlorophenyl)-3-(4-(2-(5,6,7,8-tetrahydro-1,8-naphthyridin-2-yl)ethoxy)-1H-indazol-1-yl)propanoic acid], for which the negative-log IC50 (pIC50) was 5.89.

With `O=C(O)CC(c1cnc2ccccc2n1)n1ncc2c(OCCc3ccc4c(n3)NCCC4)cccc21` (centres unmarked) [Example 33, 3-(Quinoxalin-2-yl)-3-(4-(2-(5,6,7,8-tetrahydro-1,8-naphthyridin-2-yl)ethoxy)-1H-indazol-1-yl)propanoic acid], the pIC50 was 5.80.

Consider `CN(C)C(=O)c1cccc(C(CC(=O)O)n2ncc3cc(OCCc4ccc5c(n4)NCCC5)ccc32)c1` (centres unmarked) [Example 35, 3-(3-(Dimethylcarbamoyl)phenyl)-3-(5-(2-(5,6,7,8-tetrahydro-1,8-naphthyridin-2-yl)ethoxy)-1H-indazol-1-yl)propanoic acid], for which the pIC50 is 7.77.

As for `O=C(N[C@@H](Cn1ncc2cc(CCCc3ccc4c(n3)NCCC4)ccc21)C(=O)O)OCc1ccccc1` [Example 36, (S)-2-(((Benzyloxy)carbonyl)amino)-3-(5-(3-(5,6,7,8-tetrahydro-1,8-naphthyridin-2-yl)propyl)-1H-indazol-1-yl)propanoic acid], the pIC50 was 7.11.

Turning to `CN(C)C(=O)c1cccc([C@@H](CC(=O)O)n2ncc3cc(OCCc4ccc5c(n4)NCCC5)ccc32)c1` [Example 37, (R)-3-(3-(Dimethylcarbamoyl)phenyl)-3-(5-(2-(5,6,7,8-tetrahydro-1,8-naphthyridin-2-yl)ethoxy)-1H-indazol-1-yl)propanoic acid], the pIC50 was 5.96.

For `CN(C)C(=O)c1cccc([C@H](CC(=O)O)n2ncc3cc(OCCc4ccc5c(n4)NCCC5)ccc32)c1` [Example 38, (S)-3-(3-(Dimethylcarbamoyl)phenyl)-3-(5-(2-(5,6,7,8-tetrahydro-1,8-naphthyridin-2-yl)ethoxy)-1H-indazol-1-yl)propanoic acid], the pIC50 was 8.38.

With `O=C(NC(Cn1ncc2c(OCCc3ccc4c(n3)NCCC4)cccc21)C(=O)O)OCc1ccccc1` (centres unmarked) [Example 39, 2-(((Benzyloxy)carbonyl)amino)-3-(4-(2-(5,6,7,8-tetrahydro-1,8-naphthyridin-2-yl)ethoxy)-1H-indazol-1-yl)propanoic acid], the negative logarithm of the IC50 (pIC50) is 6.47.

With `COc1ccc([C@@H](CC(=O)O)n2ncc3cc(OCCc4ccc5c(n4)NCCC5)ccc32)cn1` [Example 40, (R)-3-(6-Methoxypyridin-3-yl)-3-(5-(2-(5,6,7,8-tetrahydro-1,8-naphthyridin-2-yl)ethoxy)-1H-indazol-1-yl)propanoic acid], the pIC50 was 6.68.

As to `O=C(O)CC(c1cncc(Cl)c1)n1ncc2cc(OCCc3ccc4c(n3)NCCC4)ccc21` (centres unmarked) [Example 42, 3-(5-Chloropyridin-3-yl)-3-(5-(2-(5,6,7,8-tetrahydro-1,8-naphthyridin-2-yl)ethoxy)-1H-indazol-1-yl)propanoic acid, TFA], the pIC50 was 8.36.

Turning to `O=C(O)CC(c1cc(Cl)cc(Cl)c1)n1ncc2cc(OCCc3ccc4c(n3)NCCC4)ccc21` (centres unmarked) [Example 43, 3-(3,5-Dichlorophenyl)-3-(5-(2-(5,6,7,8-tetrahydro-1,8-naphthyridin-2-yl)ethoxy)-1H-indazol-1-yl)propanoic acid, TFA], the pIC50 is 8.49.

Regarding `COc1ccc(C(CC(=O)O)n2ncc3cc(OCCc4ccc5c(n4)NCCC5)ccc32)cc1F` (centres unmarked) [Example 44, 3-(3-Fluoro-4-methoxyphenyl)-3-(5-(2-(5,6,7,8-tetrahydro-1,8-naphthyridin-2-yl)ethoxy)-1H-indazol-1-yl)propanoic acid, TFA], the pIC50 is 8.06.

In the case of `O=C(O)CC(C1CC1)n1ncc2cc(OCCc3ccc4c(n3)NCCC4)ccc21` (centres unmarked) [Example 45, 3-Cyclopropyl-3-(5-(2-(5,6,7,8-tetrahydro-1,8-naphthyridin-2-yl)ethoxy)-1H-indazol-1-yl)propanoic acid, TFA], the pIC50 was 5.64.

For the molecule `CCCCCC(CC(=O)O)n1ncc2cc(OCCc3ccc4c(n3)NCCC4)ccc21` (centres unmarked) [Example 46, 3-(5-(2-(5,6,7,8-Tetrahydro-1,8-naphthyridin-2-yl)ethoxy)-1H-indazol-1-yl)octanoic acid, TFA], the pIC50 was 6.48.

For the molecule `O=C(O)CC(c1ccc2c(c1)CCO2)n1ncc2cc(OCCc3ccc4c(n3)NCCC4)ccc21` (centres unmarked) [Example 47, 3-(2,3-Dihydrobenzofuran-5-yl)-3-(5-(2-(5,6,7,8-tetrahydro-1,8-naphthyridin-2-yl)ethoxy)-1H-indazol-1-yl)propanoic acid, TFA], the pIC50 is 8.15.

With `O=C(O)CC(c1cccs1)n1ncc2cc(OCCc3ccc4c(n3)NCCC4)ccc21` (centres unmarked) [Example 49, 3-(5-(2-(5,6,7,8-Tetrahydro-1,8-naphthyridin-2-yl)ethoxy)-1H-indazol-1-yl)-3-(thiophen-2-yl)propanoic acid, TFA], the pIC50 is 7.48.

`O=C(O)CC(c1cccnc1)n1ncc2cc(OCCc3ccc4c(n3)NCCC4)ccc21` (centres unmarked) [Example 50, 3-(Pyridin-3-yl)-3-(5-(2-(5,6,7,8-tetrahydro-1,8-naphthyridin-2-yl)ethoxy)-1H-indazol-1-yl)propanoic acid, TFA]: the pIC50 was 7.10.

As for `O=C(O)CCn1ncc2cc(OCCc3ccc4c(n3)NCCC4)ccc21` [Example 51, 3-(5-(2-(5,6,7,8-Tetrahydro-1,8-naphthyridin-2-yl)ethoxy)-1H-indazol-1-yl)propanoic acid], the pIC50 was 5.60.

Take `O=C(O)CC(c1ccc(F)cn1)n1ncc2cc(OCCc3ccc4c(n3)NCCC4)ccc21` (centres unmarked) [Example 53, 3-(5-Fluoropyridin-2-yl)-3-(5-(2-(5,6,7,8-tetrahydro-1,8-naphthyridin-2-yl)ethoxy)-1H-indazol-1-yl)propanoic acid, TFA]: the pIC50 is 6.82.

As for `O=C(O)CC(c1ccc2oc3ccccc3c2c1)n1ncc2cc(OCCc3ccc4c(n3)NCCC4)ccc21` (centres unmarked) [Example 54, 3-(Dibenzo[b,d]furan-2-yl)-3-(5-(2-(5,6,7,8-tetrahydro-1,8-naphthyridin-2-yl)ethoxy)-1H-indazol-1-yl)propanoic acid, TFA], the pIC50 was 7.52.

Take `Cc1cc(C)nc(C(CC(=O)O)n2ncc3cc(OCCc4ccc5c(n4)NCCC5)ccc32)n1` (centres unmarked) [Example 55, 3-(4,6-Dimethylpyrimidin-2-yl)-3-(5-(2-(5,6,7,8-tetrahydro-1,8-naphthyridin-2-yl)ethoxy)-1H-indazol-1-yl)propanoic acid, TFA]: the pIC50 is 6.04.
